Values joined by “and” are separate entries in the source; they are usually repeats but may differ in a detail not shown here. Equal entries are not always repeated. Where two headings read alike, the source gives them in different places.
Columns and labels:
[1] = molecular target: T1, EGFR (Homo sapiens, UniProt P00533); test: EGFR in-cell Western (ICW) screening protocol (EGFR inhibition assay); format: cell-based; details: for ICW assay: Table 10, % Inhibition of EGF dependent EGFR phosphorylation in A431 cells, compound 125 μM in assay
T1 construct: host or cells: A431
T1 sequence (P00533 25-1210): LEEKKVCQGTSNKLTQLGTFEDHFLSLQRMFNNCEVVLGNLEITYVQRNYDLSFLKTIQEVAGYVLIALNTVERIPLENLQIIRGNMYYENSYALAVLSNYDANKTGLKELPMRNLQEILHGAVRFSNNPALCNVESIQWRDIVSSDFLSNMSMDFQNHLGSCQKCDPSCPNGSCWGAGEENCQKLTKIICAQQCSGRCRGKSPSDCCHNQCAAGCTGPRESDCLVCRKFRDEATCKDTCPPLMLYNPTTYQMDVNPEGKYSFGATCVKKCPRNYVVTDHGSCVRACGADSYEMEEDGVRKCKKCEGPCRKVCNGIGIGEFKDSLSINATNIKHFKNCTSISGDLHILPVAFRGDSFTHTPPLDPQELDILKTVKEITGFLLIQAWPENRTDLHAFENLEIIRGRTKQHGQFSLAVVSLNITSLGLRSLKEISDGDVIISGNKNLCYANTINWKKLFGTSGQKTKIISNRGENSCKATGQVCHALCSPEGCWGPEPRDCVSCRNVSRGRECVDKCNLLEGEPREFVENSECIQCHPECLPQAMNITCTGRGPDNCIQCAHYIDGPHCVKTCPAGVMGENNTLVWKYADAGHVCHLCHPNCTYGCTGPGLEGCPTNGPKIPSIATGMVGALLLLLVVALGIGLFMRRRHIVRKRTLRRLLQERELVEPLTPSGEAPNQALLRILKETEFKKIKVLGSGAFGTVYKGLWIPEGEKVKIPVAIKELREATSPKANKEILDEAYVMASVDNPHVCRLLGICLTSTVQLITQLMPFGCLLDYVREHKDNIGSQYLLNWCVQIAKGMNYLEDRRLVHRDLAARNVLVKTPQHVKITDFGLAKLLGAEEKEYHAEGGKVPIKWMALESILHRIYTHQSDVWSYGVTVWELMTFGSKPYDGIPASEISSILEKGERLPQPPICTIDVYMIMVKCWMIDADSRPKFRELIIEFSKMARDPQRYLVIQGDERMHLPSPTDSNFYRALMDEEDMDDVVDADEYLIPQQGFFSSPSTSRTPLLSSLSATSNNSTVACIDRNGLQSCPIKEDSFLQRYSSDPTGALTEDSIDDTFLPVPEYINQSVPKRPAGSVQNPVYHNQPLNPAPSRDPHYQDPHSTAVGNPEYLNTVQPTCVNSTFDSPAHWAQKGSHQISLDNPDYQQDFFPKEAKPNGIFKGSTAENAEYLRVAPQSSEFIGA
In short: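 Serum-starved A431 cells (2 h) were pretreated with compound for 4 h at 37° C, then stimulated with EGF (10 ng/ml final, or 6.6 or 12.5 ng/ml in some runs) for 10 min. After formaldehyde fixation, phospho-EGFR (Tyr1173, or Tyr1045 in some runs) and total EGFR were detected by in-cell Western immunostaining.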

[2] = system: epithelial carcinoma A431 cell line; test: MTT Cell Proliferation Assay, A431 cells; format: cell-based
In short: (§1)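 Viability was measured by mitochondrial MTT reduction after cells were exposed to compound for 3 days in reduced-serum medium. Inhibition was calculated per plate against 0.5% DMSO controls.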

[3] = system: MDBK line; test: MTT Cell Proliferation Assay, MDBK cells; format: cell-based, bovine
In short: as §1

[4] = Homo sapiens, A-431, first value of 'a/b (c)', taken as A431 cells, read-out: MTT Screen, first value of cell
[5] = Bos taurus, MDBK, second value of 'a/b (c)', taken as MDBK cells, read-out: MTT Screen, second value of cell
[6] = first value of 'a/b (c)', taken as A431 cells
[7] = first value of 'a/b (c)', taken as A431 cells, read-out: MTT Screen, first value of cell
[8] = second value of 'a/b (c)', taken as MDBK cells, read-out: MTT Screen, second value of cell
[9] = Homo sapiens, A-431, 72 h, Table 10, first of x/y(ratio): A431, three day treatment, unit not printed (doses in μM), read-out: MTT assay (first value)
[10] = Bos taurus, MDBK, 72 h, Table 10, second of x/y(ratio): MDBK, three day treatment, unit not printed (doses in μM), read-out: MTT assay (second value)
[11] = Table 10, first of x/y(ratio): A431, three day treatment, unit not printed (doses in μM), read-out: MTT assay (first value)
[12] = Table 10, second of x/y(ratio): MDBK, three day treatment, unit not printed (doses in μM), read-out: MTT assay (second value)

SMILES	ICW Screen (ICW Inhibition) [1]	IC50 [2, 4]	IC50 [3, 5]	ICW assay [1]	IC50 [2, 9]	IC50 [3, 10]	also measured
CN1CCN(S(=O)(=O)c2ccc(NC(=S)NC(=O)/C=C/c3ccc(F)cc3)cc2)CC1 [AD4-12107]	41.933	14.1 µM					MTT Screen, second value of cell ([3]; second value of 'a/b (c)', taken as MDBK cells): non- conver- gent
COc1ccc(NS(=O)(=O)c2ccc(NC(=S)NC(=O)C3CCCC3)cc2)cc1 [AD4-12119]	55.94	18.6 µM	14.6 µM				
COc1cc(NS(=O)(=O)c2ccc(NC(=S)NC(=O)/C=C/c3ccccc3)cc2)nc(OC)n1 [AD4-12122]	35.068		40.3 µM				MTT Screen, first value of cell [2, 6]: non- conver- gent
CN(Cc1ccccc1)S(=O)(=O)c1ccc(NC(=S)NC(=O)/C=C/c2ccccc2)cc1 [AD4-12126]	37.795	14.9 µM	41.9 µM				
Cc1cc(C)cc(NS(=O)(=O)c2ccc(NC(=S)NC(=O)CCc3ccccc3)cc2)c1 [AD4-12139]	41.23	18.6 µM	5.3 µM				
CN1CCN(S(=O)(=O)c2ccc(NC(=S)NC(=O)/C=C/c3ccccc3)cc2)CC1 [AD4-12145]	30.469	40.5 µM	41.8 µM				
CC1CCC(S(=O)(=O)c2ccc(NC(=S)NC(=O)C3CC3)cc2)CC1 (stereo not drawn) [AD4-12146]	40.916	26.6 µM	25.8 µM				
COc1ccccc1/C=C/C(=O)NC(=S)Nc1ccc(S(=O)(=O)Nc2nc(C)cc(C)n2)cc1 [AD4-12148]	51.845	42.8 µM	39.2 µM				
COc1ccc(NS(=O)(=O)c2ccc(NC(=S)NC(=O)CCC(=O)OCCc3ccccc3)cc2)cc1 [AD4-12149]	33.331	21.9 µM	36.2 µM				
Cc1ccc(NS(=O)(=O)c2ccc(NC(=S)NC(=O)COc3ccc(Cl)cc3C)cc2)c(C)c1 [AD4-12152]	50.528	21 µM	16.2 µM				
CC1CCN(S(=O)(=O)c2ccc(NC(=S)NC(=O)CCC(=O)OCCc3ccccc3)cc2)CC1 [AD4-12153]	31.36	15.6 µM	21.8 µM				
Cc1cc(C)nc(NS(=O)(=O)c2ccc(NC(=S)NC(=O)COc3ccc(Br)cc3Cl)cc2)n1 [AD4-12158]	36.727	5.01 µM	4.58 µM				
COc1ccc(OCC(=O)NC(=S)Nc2ccc(S(=O)(=O)Nc3cc(C)cc(C)c3)cc2)cc1 [AD4-12165]	36.632		12 µM				IC50 [2, 7]: 63.6 µM
CN(c1ccccc1)S(=O)(=O)c1ccc(NC(=S)NC(=O)/C=C/c2ccccc2)cc1 [AD4-12168]	28.819	60.5 µM	19.7 µM				MTT Screen, first value of cell [2, 6]: non- conver- gent
O=C(NC(=S)Nc1ccc(S(=O)(=O)NC2CCCCC2)cc1)C1CC1 [AD4-12171]	37.375	38.9 µM	37.1 µM				
Cc1cc(NS(=O)(=O)c2ccc(NC(=S)NC(=O)/C=C/c3ccccc3)cc2)no1 [AD4-12173]	35.393	37.3 µM					IC50 [2, 7]: 55.8 µM; IC50 [3, 8]: 106 µM and 54 µM
Cc1ccc(NS(=O)(=O)c2ccc(NC(=S)NC(=O)C3CCC3)cc2)cc1C [AD4-12175]	42.36						IC50 [2, 7]: 40 µM; IC50 [3, 8]: 9.56 µM
CCCC(=O)NC(=S)Nc1ccc(S(=O)(=O)Nc2ccc(OCC)cc2)cc1 [AD4-12183]	37.695	25.6 µM	17.2 µM				
COc1ccc(NS(=O)(=O)c2ccc(NC(=S)NC(=O)COc3ccc(Cl)cc3C)cc2)cc1 [AD4-12196]	34.379	18 µM	36.8 µM				
COc1ccc(NC(=S)Nc2ccc(S(=O)(=O)Nc3ccc(Cl)c(Cl)c3)cc2)cc1OC [AD4-12246]				38.3844	8.36 µM	8.01 µM	
Cc1cc(C)c(NS(=O)(=O)c2ccc(NC(=S)Nc3ccc(S(N)(=O)=O)cc3)cc2)c(C)c1 [AD4-12250]				29.3683	12.7 µM	11.6 µM	
COc1cc(NS(=O)(=O)c2ccc(NC(=S)NC(=O)/C=C/c3ccccc3)cc2)nc(OC)n1 [AD4-12262]	40.146						IC50 [2, 7]: 42.9 µM; IC50 [3, 8]: 43.4 µM
COc1ccccc1/C=C/C(=O)NC(=S)Nc1ccc(S(=O)(=O)N2CCN(C)CC2)cc1 [AD4-12265]	31.19	38.1 µM	35.1 µM				

SMILES	ICW Screen (ICW Inhibition) [1]	IC50 [2, 4]	IC50 [3, 5]	ICW assay [1]	IC50 [2, 9]	IC50 [3, 10]	also measured
COc1ccc(CC(=O)NC(=S)Nc2ccc(S(=O)(=O)Nc3nc(C)cc(C)n3)cc2)cc1 [AD4-12266]	29.289	49.6 µM	45.9 µM				
Cc1cc(NS(=O)(=O)c2ccc(NC(=S)NC(=O)/C=C/c3ccccc3)cc2)no1 [AD4-12273]	33.104						IC50 [2, 7]: 31.7 µM; IC50 [3, 8]: 42.9 µM
CN(c1ccccc1)S(=O)(=O)c1ccc(NC(=S)NC(=O)/C=C/c2ccc(F)cc2)cc1 [AD4-12280]	41.439	10.2 µM	17.7 µM				IC50 [2, 7]: 5.76 µM; IC50 [3, 8]: 21.2 µM
CC1CCN(S(=O)(=O)c2ccc(NC(=S)NC(=O)C3CC3)cc2)CC1 [AD4-12286]	26.829	15.5 µM	29.9 µM				
CCN(c1ccccc1)S(=O)(=O)c1ccc(NC(=S)Nc2ccccc2)cc1 [AD4-12389]				72.5659			IC50 [2, 11]: 12.2 µM; IC50 [3, 12]: 6.07 µM
CC(=O)c1cccc(NC(=S)Nc2ccc(S(=O)(=O)Nc3c(C)cc(C)cc3C)cc2)c1 [AD4-12391]				37.4191	11.1 µM	9.09 µM	
Cc1cc(C)c(NS(=O)(=O)c2ccc(NC(=S)Nc3ccccc3F)cc2)c(C)c1 [AD4-12395]				57.5206	7.92 µM	6.96 µM	
Cc1ccc(NC(=S)Nc2ccc(S(=O)(=O)Nc3cc(Cl)cc(Cl)c3)cc2)cc1C [AD4-12400]				69.4793	4.05 µM	5.77 µM	
CCC(C)c1ccc(NC(=S)Nc2ccc(S(=O)(=O)Nc3c(C)cc(C)cc3C)cc2)cc1 (stereo not drawn) [AD4-12403]				50.7196	4.03 µM	5.3 µM	
COc1cccc(NC(=S)Nc2ccc(S(=O)(=O)Nc3ccc(Cl)cc3)cc2)c1 [AD4-12411]				34.0556	6.7 µM	5.18 µM	
Cc1ccc(NC(=S)Nc2ccc(S(=O)(=O)Nc3ccc(Cl)cc3)cc2)cc1 [AD4-12413]				35.1946	6.83 µM	6.35 µM	
O=S(=O)(Nc1ccc(Cl)cc1)c1ccc(NC(=S)Nc2cccc(C(F)(F)F)c2)cc1 [AD4-12423]				129.155	6.35 µM	5.77 µM	IC50 [2, 11]: 4.23 µM; IC50 [3, 12]: 2.92 µM
CC(C)c1ccc(NC(=S)Nc2ccc(S(=O)(=O)Nc3cc(Cl)cc(Cl)c3)cc2)cc1 [AD4-12424]				82.3761	4.08 µM	4.73 µM	
CCc1ccc(NC(=S)Nc2ccc(S(=O)(=O)Nc3ccc(Cl)c(Cl)c3)cc2)cc1 [AD4-12430]				82.0877	4.07 µM	5.54 µM	
O=S(=O)(Nc1ccc(Cl)c(Cl)c1)c1ccc(NC(=S)Nc2cccc(F)c2)cc1 [AD4-12431]				26.7815	6.4 µM	5.57 µM	
COc1ccc(NS(=O)(=O)c2ccc(NC(=S)Nc3ccc(OC)c(OC)c3)cc2)cc1 [AD4-12433]				54.4095	29.1 µM	38.5 µM	
O=S(=O)(Nc1ccc(Cl)cc1)c1ccc(NC(=S)Nc2ccccc2C(F)(F)F)cc1 [AD4-12435]				41.4281	6.67 µM	6.15 µM	
CCc1ccc(NC(=S)Nc2ccc(S(=O)(=O)Nc3cc(Cl)cc(Cl)c3)cc2)cc1 [AD4-12436]				108.826	5.47 µM	5.53 µM	
Cc1ccc(NC(=S)Nc2ccc(S(=O)(=O)Nc3ccc(Cl)c(Cl)c3)cc2)cc1 [AD4-12438]				53.245	5.69 µM	5.9 µM	
Cc1cccc(NC(=S)Nc2ccc(S(=O)(=O)Nc3ccc(Cl)c(Cl)c3)cc2)c1 [AD4-12442]				79.1185	5.59 µM	5.76 µM	
CCOc1ccccc1NC(=S)Nc1ccc(S(=O)(=O)Nc2ccc(Cl)c(Cl)c2)cc1 [AD4-12443]				44.7896	6.71 µM	6.91 µM	
Cc1ccc(NC(=S)Nc2ccc(S(=O)(=O)Nc3cc(Cl)cc(Cl)c3)cc2)cc1 [AD4-12460]				42.5115	6.33 µM	5.61 µM	
Cc1cc(C)cc(NC(=S)Nc2ccc(S(=O)(=O)Nc3cc(Cl)cc(Cl)c3)cc2)c1 [AD4-12461]				53.1391	4.06 µM	5.91 µM	
